Reference: US20240317780A1, “RADIOPHARMACEUTICAL SOMATOSTATIN RECEPTOR LIGANDS AND PRECURSORS THEREOF” (Technische Universität München, priority 2021, published 2024)
Read-outs that look alike come from different tables or passages of the source.

Tests used:
[1] = Octanol-water distribution coefficient (logD pH 7.4) of the labeled tracer; format: physicochemical; details: n-octanol/PBS pH 7.4, room temperature
Experimental: Approximately 1 MBq of the labeled tracer was dissolved in 1 mL of a 1:1 mixture (by volumes) of phosphate buffered saline (PBS, pH 7.4) and n-octanol in an Eppendorf tube. After vigorous mixing of the suspension for 3 minutes at room temperature, the vial was centrifuged at 15000 g for 5 minutes (Biofuge 15, Heraus Sepatech, Osterode, Germany) and 100 μL aliquots of both layers were measured in a gamma counter. The experiment was repeated at least six times.

[2] = target: T1, SST2 (Homo sapiens, UniProt P30874); experiment: Determination of IC50: competitive binding against [125I]TOC on SST2-transfected CHO cells; details: [125I]TOC reference radioligand, 60 min room temperature
T1 construct: expressed in transfected cells; host or cells: CHO (Chinese hamster ovary) cells
Experimental: The SST2-transfected CHO cells were cultivated in Dulbecco's Modified Eagle Medium/Nutrient Mixture F-12 (DMEM/F-12) with Glutamax-I (1:1) (Gibco), supplemented with 10% fetal calf serum (FCS) and maintained at 37° C. in a humidified 5% CO2 atmosphere. […] After removal of the culture medium, the cells were treated once with 300 μL of HBSS-B (Hank's balanced salt solution, Biochrom, Berlin, Germany, with addition of 1% bovine serum albumin (BSA)) and left with 200 μL HBSS-B. Next, 25 μL per well of solutions, containing either HBSS-B (control) or the respective ligand in increasing concentration (10^−10-10^−4 M in HBSS-B, were added with subsequent addition of 25 μL of
[^125I]TOC ([^125I]Tyr^3-Octreotide) (1.0 nM) in HBSS-B. Each concentration is investigated in triplicate. After 60 min incubation at room temperature, the experiment was terminated by removal of the assay medium and consecutive rinsing with 300 μL of cold PBS. The media of both steps were combined in one fraction and represent the amount of unbound radioligand.
Afterwards, the cells were lysed with 300 μL of 1 M NaOH and united with the 300 μL 1 M NaOH of the following wash step. Quantification of bound and unbound radioligand was accomplished in a γ-counter.

[3] = Biodistribution of 18F-labeled SST2 ligands in AR42J tumor-bearing mice; format: in vivo; details: female, CD1 nu/nu, mouse, iv, total radioactivity, 1 h post injection
Experimental: All animal experiments were conducted in accordance with general animal welfare regulations in Germany and the institutional guidelines for the care and use of animals. To establish tumor xenografts, AR42J cells (5×10^6 cells/100 μL) were suspended in Dulbecco modified Eagle medium/Nutrition Mixture F-12 with Glutamax-1 (1:1) and inoculated subcutaneously onto the right shoulder of 8 weeks old, female CD1 nu/nu mice (Charles River, Sulzfeld, Germany). Mice were used for experiments when tumors had grown to a diameter of 5-9 mm (7-15 days after inoculation).
Approximately 0.5-2.0 MBq (0.05-0.25 nmol) of the ^18F-labeled SST2-ligands were injected into the tail vein of AR42J tumor-bearing female CD1 nu/nu mice and sacrificed after 1 h post injection (n=3-5). Selected organs were removed, weighted and measured in a γ-counter.
The Tables 4, 5, and 6 summarize the results of the in vivo mouse experiments. For all biodistribution studies, female CD1 nu/nu mice with AR42J tumor xenografts, were used and sacrificed 1 h post injection.

[4] = AR42J tumor, AR42J tumor, tail vein, read-out: Tumor % ID/g ± SD
[5] = adrenal glands, tail vein, read-out: Adrenal glands % ID/g ± SD
[6] = blood, tail vein, read-out: Blood % ID/g ± SD
[7] = bone, tail vein, read-out: Bone % ID/g ± SD
[8] = heart, tail vein, read-out: Heart % ID/g ± SD
[9] = intestine, tail vein, read-out: Intestine % ID/g ± SD
[10] = kidneys, tail vein, read-out: Kidneys % ID/g ± SD
[11] = liver, tail vein, read-out: Liver % ID/g ± SD
[12] = lung, tail vein, read-out: Lung % ID/g ± SD
[13] = muscle, tail vein, read-out: Muscle % ID/g ± SD
[14] = pancreas, tail vein, read-out: Pancreas % ID/g ± SD
[15] = spleen, tail vein, read-out: Spleen % ID/g ± SD
[16] = stomach, tail vein, read-out: Stomach % ID/g ± SD

T1 sequence (P30874 whole entry, species assumed): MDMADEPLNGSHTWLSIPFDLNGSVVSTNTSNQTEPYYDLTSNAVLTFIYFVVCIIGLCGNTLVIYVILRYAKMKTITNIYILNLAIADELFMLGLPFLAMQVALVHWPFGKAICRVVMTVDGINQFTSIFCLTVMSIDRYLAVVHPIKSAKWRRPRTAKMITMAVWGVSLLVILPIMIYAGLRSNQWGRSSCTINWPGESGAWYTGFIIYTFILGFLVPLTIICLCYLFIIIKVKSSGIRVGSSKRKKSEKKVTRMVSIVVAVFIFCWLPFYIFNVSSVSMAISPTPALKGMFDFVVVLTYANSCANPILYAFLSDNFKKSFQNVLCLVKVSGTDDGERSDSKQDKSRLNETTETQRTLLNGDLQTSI

Row | SMILES | LogDpH=7.4 [1] | IC50 [2] [nM] | tissue uptake at 1 h [3, 4] [%ID/g] | tissue uptake at 1 h [3, 5] [%ID/g] | tissue uptake at 1 h [3, 6] [%ID/g] | tissue uptake at 1 h [3, 7] [%ID/g] | tissue uptake at 1 h [3, 8] [%ID/g] | tissue uptake at 1 h [3, 9] [%ID/g] | tissue uptake at 1 h [3, 10] [%ID/g] | tissue uptake at 1 h [3, 11] [%ID/g] | tissue uptake at 1 h [3, 12] [%ID/g] | tissue uptake at 1 h [3, 13] [%ID/g] | tissue uptake at 1 h [3, 14] [%ID/g] | tissue uptake at 1 h [3, 15] [%ID/g] | tissue uptake at 1 h [3, 16] [%ID/g] | also measured
1 | C[C@@H](O)[C@H](NC(=O)C1CSSCC(NC(=O)C(Cc2ccccc2)NC(=O)CNC(=O)CNC(=O)[C@@H](CC(=O)O)NC(=O)C(CC(=O)O)NC(=O)[C@@H](CNC(=O)c2ccc([Si](F)(C(C)(C)C)C(C)(C)C)cc2)NC(=O)CCC(C(=O)O)N2CCN(CC(=O)O)CCN(CC(=O)O)CCN(CC(=O)O)CC2)C(=O)N[C@@H](Cc2ccc(O)cc2)C(=O)NC(Cc2c[nH]c3ccccc23)C(=O)N[C@@H](CCCCN)C(=O)N[C@@H]([C@@H](C)O)C(=O)N1)C(=O)O (stereo partly shown) (natGa complex, metal not drawn) [[Ga]6] | −2.15 ± 0.09 | 149 ± 20.3 |  |  |  |  |  |  |  |  |  |  |  |  |  | 
2 | C[C@@H](O)[C@H](NC(=O)C1CSSCC(NC(=O)C(Cc2ccccc2)NC(=O)CNC(=O)CNC(=O)[C@@H](CC(=O)O)NC(=O)C(CC(=O)O)NC(=O)[C@@H](CNC(=O)c2ccc([Si](F)(C(C)(C)C)C(C)(C)C)cc2)NC(=O)CN2CCN(CC(=O)O)CCN(CC(=O)O)CCN(CC(=O)O)CC2)C(=O)N[C@@H](Cc2ccc(O)cc2)C(=O)NC(Cc2c[nH]c3ccccc23)C(=O)N[C@@H](CCCCN)C(=O)N[C@@H]([C@@H](C)O)C(=O)N1)C(=O)O (stereo partly shown) (natGa complex, metal not drawn) [[Ga]8] | −2.02 ± 0.04 | 58.5 ± 10.8 |  |  |  |  |  |  |  |  |  |  |  |  |  | 
3 | C[C@@H](O)[C@H](NC(=O)C1CSSCC(NC(=O)C(Cc2ccccc2)NC(=O)CNC(=O)CNC(=O)[C@@H](CC(=O)O)NC(=O)C(CC(=O)O)NC(=O)[C@@H](CNC(=O)CN2CCN(CC(=O)O)CCN(CC(=O)O)CCN(CC(=O)O)CC2)NC(=O)C[N+](C)(C)Cc2ccc([Si](F)(C(C)(C)C)C(C)(C)C)cc2)C(=O)N[C@@H](Cc2ccc(O)cc2)C(=O)NC(Cc2c[nH]c3ccccc23)C(=O)N[C@@H](CCCCN)C(=O)N[C@@H]([C@@H](C)O)C(=O)N1)C(=O)O (stereo partly shown) (natGa complex, metal not drawn) [[Ga]24] |  | 9.48 ± 1.96 | 23.9 ± 4.1 | 1.52 ± 0.46 | 0.66 ± 0.32 | 1.32 ± 0.19 | 0.34 ± 0.09 | 1.41 ± 0.19 | 13.6 ± 3.58 | 1.05 ± 0.22 | 2.33 ± 0.1 | 0.09 ± 0.04 | 9.28 ± 0.57 | 0.45 ± 0.05 | 4.95 ± 0.35 | tissue uptake at 1 h ([3]; AR42J tumor, AR42J tumor, Blocking study, read-out: Tumor % ID/g ± SD): 6.1 ± 0.02 %ID/g; tissue uptake at 1 h ([3]; adrenal glands, Blocking study, read-out: Adrenal glands % ID/g ± SD): 0.54 ± 0.05 %ID/g; tissue uptake at 1 h ([3]; blood, Blocking study, read-out: Blood % ID/g ± SD): 1.24 ± 0.61 %ID/g; tissue uptake at 1 h ([3]; bone, Blocking study, read-out: Bone % ID/g ± SD): 0.77 ± 0.07 %ID/g; tissue uptake at 1 h ([3]; heart, Blocking study, read-out: Heart % ID/g ± SD): 0.53 %ID/g; tissue uptake at 1 h ([3]; intestine, Blocking study, read-out: Intestine % ID/g ± SD): 0.71 ± 0.04 %ID/g; tissue uptake at 1 h ([3]; kidneys, Blocking study, read-out: Kidneys % ID/g ± SD): 18.2 ± 2.03 %ID/g; tissue uptake at 1 h ([3]; liver, Blocking study, read-out: Liver % ID/g ± SD): 1.82 ± 0.22 %ID/g; tissue uptake at 1 h ([3]; lung, Blocking study, read-out: Lung % ID/g ± SD): 1.36 ± 0.13 %ID/g; tissue uptake at 1 h ([3]; muscle, Blocking study, read-out: Muscle % ID/g ± SD): 0.21 ± 0.01 %ID/g; tissue uptake at 1 h ([3]; pancreas, Blocking study, read-out: Pancreas % ID/g ± SD): 1.07 ± 0.02 %ID/g; tissue uptake at 1 h ([3]; spleen, Blocking study, read-out: Spleen % ID/g ± SD): 0.33 %ID/g; tissue uptake at 1 h ([3]; stomach, Blocking study, read-out: Stomach % ID/g ± SD): 1.01 ± 0.06 %ID/g
4 | C[C@@H](O)[C@H](NC(=O)C1CSSCC(NC(=O)C(Cc2ccccc2)NC(=O)CNC(=O)CNC(=O)CNC(=O)C(CC(=O)O)NC(=O)[C@@H](CC(=O)O)NC(=O)C(CCCCN)NC(=O)[C@@H](CNC(=O)C[N+](C)(C)Cc2ccc([Si](F)(C(C)(C)C)C(C)(C)C)cc2)NC(=O)CN2CCN(CC(=O)O)CCN(CC(=O)O)CCN(CC(=O)O)CC2)C(=O)N[C@@H](Cc2ccc(O)cc2)C(=O)NC(Cc2c[nH]c3ccccc23)C(=O)N[C@@H](CCCCN)C(=O)N[C@@H]([C@@H](C)O)C(=O)N1)C(=O)O (stereo partly shown) (natGa complex, metal not drawn) [[Ga]45] |  | 4.3 ± 0.06 | 31.6 ± 4.96 | 1.54 ± 0.28 | 0.53 ± 0.23 | 1.81 ± 0.07 | 0.28 ± 0.04 | 1.27 ± 0.13 | 72.7 ± 7.68 | 1.28 ± 0.11 | 3.34 ± 0.49 | 0.11 ± 0.02 | 11.8 ± 1.36 | 0.56 ± 0.1 | 7.5 ± 0.13 | 
5 | C[C@@H](O)[C@H](NC(=O)C1CSSCC(NC(=O)C(Cc2ccccc2)NC(=O)CNC(=O)CNC(=O)CNC(=O)C(CC(=O)O)NC(=O)[C@@H](CC(=O)O)NC(=O)C(CCCNC(N)=O)NC(=O)[C@@H](CNC(=O)C[N+](C)(C)Cc2ccc([Si](F)(C(C)(C)C)C(C)(C)C)cc2)NC(=O)CN2CCN(CC(=O)O)CCN(CC(=O)O)CCN(CC(=O)O)CC2)C(=O)N[C@@H](Cc2ccc(O)cc2)C(=O)NC(Cc2c[nH]c3ccccc23)C(=O)N[C@@H](CCCCN)C(=O)N[C@@H]([C@@H](C)O)C(=O)N1)C(=O)O (stereo partly shown) (natGa complex, metal not drawn) [[Ga]46] |  | 4.79 ± 0.84 | 23.4 ± 1.07 | 1.71 ± 0.38 | 0.57 ± 0.24 | 1.21 ± 0.24 | 0.3 ± 0.04 | 1.43 ± 0.35 | 12.6 ± 1.58 | 0.83 ± 0.14 | 3.22 ± 0.53 | 0.1 ± 0.02 | 11.1 ± 2.61 | 0.57 ± 0.14 | 6.51 ± 1.64 | 
6 | C[C@@H](O)[C@H](NC(=O)C1CSSCC(NC(=O)C(Cc2ccccc2)NC(=O)CNC(=O)CNC(=O)CNC(=O)C(CC(=O)O)NC(=O)[C@@H](CC(=O)O)NC(=O)C(CNC(=O)CN2CCN(CC(=O)O)CCN(CC(=O)O)CCN(CC(=O)O)CC2)NC(=O)C[N+](C)(C)Cc2ccc([Si](F)(C(C)(C)C)C(C)(C)C)cc2)C(=O)N[C@@H](Cc2ccc(O)cc2)C(=O)NC(Cc2c[nH]c3ccccc23)C(=O)N[C@@H](CCCCN)C(=O)N[C@@H]([C@@H](C)O)C(=O)N1)C(=O)O (stereo partly shown) (natGa complex, metal not drawn) [[Ga]50] |  | 3.01 ± 0.03 | 31.8 ± 2.49 | 2.39 ± 0.53 | 0.5 ± 0.21 | 1.23 ± 0.41 | 0.27 ± 0.03 | 1.84 ± 0.45 | 12.3 ± 3.4 | 1.22 ± 0.18 | 3.73 ± 0.57 | 0.1 ± 0.03 | 17.3 ± 2.87 | 0.55 ± 0.06 | 9.54 ± 1.83 | 
